Converted amounts (≈) assume the structure as drawn.
Columns and labels:
Botrytis cinerea [1] = assay: Agar well inhibition zone, Botrytis cinerea, mycelium plates (Bc1); assay type: cell-based; parameters: key to inhibition zone Bc1: clear; diffuse; very diffuse; +: very weak; settings: 15 μl per well, 3 days at 25° C.
Description: (§1) Botrytis cinerea (Bc) grey mould
(§2) Each of the above mentioned 9 pathogens were separately innoculated into 100 ml of potato dextrose (PD) bouillon and shaken at 200 rpm at 25° C. for 7 days. The mycelium was harvested and homogenized for about 10 seconds in a Warring blender and 1-5 ml of the blended mycelium was transferred to petri dishes with a diameter of 14 cm. […] 20 ml of potato dextrose agar (PDA) having a temperature of 45° C. were poured into each of the petri dishes and thorougly mixed with the blended mycelium present therein. When the agar had solidified, wells of a diameter of 4 mm were punched in the agar, and 15 μl of test solutions containing varicus concentrations of compound Ia, Ib and IIa dissolved in ethanol was applied to each well. The plates were incubated for three days at 25° C. and the inhibition zones measured (in mm). […]

Botrytis cinerea [2] = assay: Agar well inhibition zone, Botrytis cinerea, plates made from spores (Bc2); assay type: cell-based; settings: for appearance of Bc zones / time of incubation after which Bc zones could be seen: Bc plates; for zone of inhibition at 500 µg/mL: 0.5 mg/ml; for zone of inhibition at 1000 µg/mL: 1.0 mg/ml
Description: as §1
(§3) Each of the above mentioned 9 pathogens were separately innoculated into 100 ml of potato dextrose (PD) bouillon and shaken at 200 rpm at 25° C. for 7 days. The mycelium was harvested and homogenized for about 10 seconds in a Warring blender and 1-5 ml of the blended mycelium was transferred to petri dishes with a diameter of 14 cm. […] 20 ml of potato dextrose agar (PDA) having a temperature of 45° C. were poured into each of the petri dishes and thorougly mixed with the blended mycelium present therein. When the agar had solidified, wells of a diameter of 4 mm were punched in the agar, and 15 μl of test solutions containing varicus concentrations of compound Ia, Ib and IIa dissolved in ethanol was applied to each well. The plates were incubated for three days at 25° C. and the inhibition zones measured (in mm).
(§4) The experiments were repeated and in the second run, Bc plates were made from Bc spores (the plates were termed Bc2) as such plates may result in a more uniform growth.

Pyrenophora teres = assay: Agar well inhibition zone, Pyrenophora teres (Pt); assay type: cell-based; parameters: key to inhibition zone Pt: clear; diffuse; very diffuse; +: very weak; settings: 15 μl per well, 3 days at 25° C.; for zone of inhibition at 100 µg/mL / zone of inhibition at 500 µg/mL / zone of inhibition at 1000 µg/mL: Pyrenophora teres, 72 h; for zone of inhibition at 500 µg/mL: 0.5 mg/ml; for zone of inhibition at 1000 µg/mL: 1.0 mg/ml
Description: Pyrenophora teres (Pt) net blotch disease
as §2

Phoma betae = assay: Agar well inhibition zone, Phoma betae (Pb); assay type: cell-based; settings: 15 μl per well, 3 days at 25° C.; for zone of inhibition at 500 µg/mL: 0.5 mg/ml
Description: Phoma betae (Pb) seedling black rot, black leg
as §2

Ascochyta pisi = assay: Agar well inhibition zone, Ascochyta pisi (Ap); assay type: cell-based; parameters: key to inhibition zone Ap: clear; diffuse; very diffuse; +: very weak; settings: 15 μl per well, 3 days at 25° C.; for zone of inhibition at 1000 µg/mL: 1.0 mg/ml
Description: Ascochyta pisi (Ap) leaf, stem and pod rot
as §2

Phoma lingam = assay: Agar well inhibition zone, Phoma lingam (Pl); assay type: cell-based; parameters: key to inhibition zone P1: clear; diffuse; very diffuse; +: very weak; settings: 15 μl per well, 3 days at 25° C.; for zone of inhibition at 1000 µg/mL: 1.0 mg/ml
Description: Phoma lingam (Pl) canker and dry rot
as §2

Alternaria alternata = assay: Agar well inhibition zone, Alternaria alternata (Aa); assay type: cell-based; settings: 15 μl per well, 3 days at 25° C.; for zone of inhibition at 500 µg/mL: 0.5 mg/ml; for zone of inhibition at 1000 µg/mL: 1.0 mg/ml
Description: Alternaria alternata (Aa) black mould coverings, leaf spot
as §3, §4

Sclerotinia sclerotiorum = assay: Agar well inhibition zone, Sclerotinia sclerotiorum (Ss); assay type: cell-based; parameters: key to inhibition zone Ss: clear; diffuse; very diffuse; +: very weak; settings: 15 μl per well, 3 days at 25° C.
Description: Sclerotinia sclerotiorum (Ss) white mould disease, stem rot
as §2

Monilinia fructigena = assay: Agar well inhibition zone, Monilinia fructigena (Mf); assay type: cell-based; settings: 15 μl per well, 3 days at 25° C.; for zone of inhibition at 500 µg/mL: 0.5 mg/ml; for zone of inhibition at 1000 µg/mL: 1.0 mg/ml
Description: Monilinia fructigena (Mf) brown rot, fruit rot
as §2

plant pathogenic fungi = assay: In vitro fungicidal activity spectrum over the pathogens tested; assay type: cell-based
Description: The following pathogens were used:
as §3, §4

Botrytis cinerea [3] = assay: Fungicidal activity in vivo against Botrytis cinerea on sprayed plants; settings: spray to run off, assessed after 6 days
Description: Activity of the compounds Ia and Ib against Botrytis cinerea Host: Lycopersicon esculentum (tomato, var. First in Field) […] plants (5 weeks old) were sprayed to run off with liquid solutions using a handhold sprayer (Bink Bullows 900). The solution (70% EtOH) had different concentrations of the compounds Ia and Ib. The plants were kept 24 hours in a green house to dry before they were inoculated with a spore suspension containing 1×10^5 spores/ml in 25% grape juice. The inoculation was carried out with a handhold atomizer (Wagner, Pico Bel). The plants were then incubated (16 hours light (1000 lux) and 8 hours dark) at 15°-20° C. in clear polyethylene bags to raise the relative humidity to 95-100%. After 6 days the assessment was done.

[4] = tested on: mouse peritoneal macrophage; assay: Mouse peritoneal macrophage assay, cellular ATP (viability); assay type: cell-based
[5] = tested on: mouse peritoneal macrophage; assay: Mouse peritoneal macrophage assay, chemiluminescence (phagocytosis); assay type: cell-based
nerve growth factor = settings: cited from earlier work
[6] = Botrytis cinerea, 72 h, 0.1 mg/ml
[7] = 0.1 mg/ml, 15 μl per well, 3 days at 25° C., plates from spores
[8] = Botrytis cinerea, 72 h, 15 μl per well, 3 days at 25° C., plates from spores
[9] = Neocamarosporium betae, 72 h, 0.1 mg/ml
[10] = Ascochyta pisi, 72 h, 0.1 mg/ml
[11] = Plenodomus lingam, 72 h, read-out: inhibition zone P1

Row | SMILES | zone of inhibition at 100 µg/mL (Botrytis cinerea [1]; [6]) [mm] | inhibition zone Bc2 (Botrytis cinerea [2]; [7]) | zone of inhibition at 100 µg/mL (Pyrenophora teres; 0.1 mg/ml) [mm] | inhibition zone P1 (Phoma lingam; 0.1 mg/ml) | inhibition zone Ss (Sclerotinia sclerotiorum; 0.1 mg/ml) | inhibition zone Mf (Monilinia fructigena; 0.1 mg/ml) | appearance of Bc zones (Botrytis cinerea [2]) | time of incubation after which Bc zones could be seen (Botrytis cinerea [2]) [days] | zone of inhibition at 500 µg/mL (Botrytis cinerea [2]; [8]) [mm] | zone of inhibition at 1000 µg/mL (Botrytis cinerea [2]; [8]) [mm] | zone of inhibition at 500 µg/mL (Pyrenophora teres) [mm] | zone of inhibition at 1000 µg/mL (Pyrenophora teres) [mm] | zone of inhibition at 100 µg/mL (Phoma betae; [9]) [mm] | zone of inhibition at 500 µg/mL (Phoma betae; Neocamarosporium betae, 72 h) [mm] | zone of inhibition at 100 µg/mL (Ascochyta pisi; [10]) [mm] | zone of inhibition at 1000 µg/mL (Ascochyta pisi; Ascochyta pisi, 72 h) [mm] | zone of inhibition at 1000 µg/mL (Phoma lingam; [11]) [mm] | zone of inhibition at 500 µg/mL (Alternaria alternata; Alternaria alternata, 72 h) [mm] | zone of inhibition at 1000 µg/mL (Alternaria alternata; Alternaria alternata, 72 h) [mm] | zone of inhibition at 500 µg/mL (Monilinia fructigena; Monilinia fructigena, 72 h) [mm] | further results
1 | C[C@@H]1Cc2cc(O)cc(O)c2C(=O)O[C@H](C)CC(=O)OC[C@@H](O)CC(=O)O[C@H](C)Cc2cc(O)cc(O)c2C(=O)O[C@H](C)CC(=O)O1 [IIIa] | 0 | 0 mm | 0 | 0 mm | 0 mm | 0 mm |  |  |  |  |  |  |  |  |  |  |  |  |  |  | inhibition zone Pb (Phoma betae; 0.1 mg/ml): 0 mm; inhibition zone Ap (Ascochyta pisi; 0.1 mg/ml): 0 mm; inhibition zone Aa (Alternaria alternata; 0.1 mg/ml): 0 mm
2 | C[C@@H]1CC(=O)O[C@H](C)Cc2cc(O)cc(O)c2C(=O)O[C@H](C)CC(=O)O[C@H](C)Cc2cc(O)cc(O)c2C(=O)O[C@H](C)CC(=O)O1 [Compound Ib] | 0 |  | 0 |  |  |  | very clear | ≤ 2 | 26 | 30 | 17 | 33 | 0 | 17 | 0 | 15 | 12 | 15 | 17 | 0 | zone of inhibition at 500 µg/mL (Botrytis cinerea [1]; Botrytis cinerea, 72 h, 0.5 mg/ml): 0 mm; zone of inhibition at 1000 µg/mL (Botrytis cinerea [1]; Botrytis cinerea, 72 h, 1.0 mg/ml): 0 mm; zone of inhibition at 100 µg/mL (Botrytis cinerea [2]; Botrytis cinerea, 72 h, 0.1 mg/ml, 15 μl per well, 3 days at 25° C., plates from spores): 0 mm; zone of inhibition at 1000 µg/mL (Phoma betae; Neocamarosporium betae, 72 h, 1.0 mg/ml): 20 mm; inhibition zone Ap (Ascochyta pisi; 0.5 mg/ml): +; inhibition zone P1 (Phoma lingam; 0.5 mg/ml): +; zone of inhibition at 100 µg/mL (Phoma lingam; Plenodomus lingam, 72 h, 0.1 mg/ml, read-out: inhibition zone P1): 0 mm; zone of inhibition at 100 µg/mL (Alternaria alternata; Alternaria alternata, 72 h, 0.1 mg/ml): 0 mm; zone of inhibition at 100 µg/mL (Sclerotinia sclerotiorum; Sclerotinia sclerotiorum, 72 h, 0.1 mg/ml): 0 mm; zone of inhibition at 500 µg/mL (Sclerotinia sclerotiorum; Sclerotinia sclerotiorum, 72 h, 0.5 mg/ml): 0 mm; zone of inhibition at 1000 µg/mL (Sclerotinia sclerotiorum; Sclerotinia sclerotiorum, 72 h, 1.0 mg/ml): 0 mm; zone of inhibition at 100 µg/mL (Monilinia fructigena; Monilinia fructigena, 72 h, 0.1 mg/ml): 0 mm; zone of inhibition at 1000 µg/mL (Monilinia fructigena; Monilinia fructigena, 72 h): 25 mm; activity spectrum (plant pathogenic fungi; all pathogens tested, Table 2): active, to a higher or lower degree, towards all of the pathogens tested; protection (Botrytis cinerea [3]; 36 ppm): approx. 50%; protection (Botrytis cinerea [3]; 360 ppm): approx. 50%; IC50 [4]: 6 µg/mL (≈ 9.28 µM); IC50 [5]: 6 µg/mL (≈ 9.28 µM)
3 | C[C@@H]1Cc2cc(O)cc(O)c2C(=O)O[C@H](C)CC(=O)OC[C@@H](O)CC(=O)O[C@H](C)Cc2cc(O)cc(O)c2C(=O)O[C@H](C)CC(=O)O1 [Compound IIa] |  | 30d mm |  | 31d mm | 40d mm | 40v | very diffuse | ≥ 3 | 37 | 45 | 0 | 0 | 0 | 0 | 0 | 0 | 18 | 0 | 0 | 40 | inhibition zone Bc1 (Botrytis cinerea [1]; 0.1 mg/ml): +; inhibition zone Bc1 (Botrytis cinerea [1]; 0.5 mg/ml): +; inhibition zone Bc1 (Botrytis cinerea [1]; 1.0 mg/ml): +; inhibition zone Pt (Pyrenophora teres; 0.1 mg/ml): +; zone of inhibition at 500 µg/mL (Ascochyta pisi; Ascochyta pisi, 72 h, 0.5 mg/ml): 0 mm; zone of inhibition at 500 µg/mL (Phoma lingam; Plenodomus lingam, 72 h, 0.5 mg/ml, read-out: inhibition zone P1): 14 mm; inhibition zone Ss (Sclerotinia sclerotiorum; 0.5 mg/ml): +; inhibition zone Ss (Sclerotinia sclerotiorum; 1.0 mg/ml): +; zone of inhibition at 1000 µg/mL (Monilinia fructigena; Monilinia fructigena, 72 h): 40 mm; number of pathogens against which compound was active (plant pathogenic fungi; with respect to Bc only for the plate containing spores): 5 pathogens; IC50 [4]: < 10 µg/mL; IC50 [5]: < 10 µg/mL
4 | CC1Cc2cc(O)cc(O)c2C(=O)OC(C)CC(=O)OC(C)Cc2cc(O)cc(O)c2C(=O)OC(C)CC(=O)OC(CO)CC(=O)O1 (centres unmarked) [NG-012] |  |  |  |  |  |  |  |  |  |  |  |  |  |  |  |  |  |  |  |  | nerve growth factor potentiation (nerve growth factor): nerve growth factor potentiator

Source: patent publication US5641804A, “Fungicidal compound comprising a cyclic polylactone” (Novo Nordisk A/S, priority 1992, dated 1997)
